For data set [1], the target named is T1, human adenosine A1 receptor (Homo sapiens, UniProt P30542).
T1 construct: expressed in transfected cells; host or cells: CHO cells, semliki forest virus expression system; membrane preparation
T1 sequence (P30542 1-326): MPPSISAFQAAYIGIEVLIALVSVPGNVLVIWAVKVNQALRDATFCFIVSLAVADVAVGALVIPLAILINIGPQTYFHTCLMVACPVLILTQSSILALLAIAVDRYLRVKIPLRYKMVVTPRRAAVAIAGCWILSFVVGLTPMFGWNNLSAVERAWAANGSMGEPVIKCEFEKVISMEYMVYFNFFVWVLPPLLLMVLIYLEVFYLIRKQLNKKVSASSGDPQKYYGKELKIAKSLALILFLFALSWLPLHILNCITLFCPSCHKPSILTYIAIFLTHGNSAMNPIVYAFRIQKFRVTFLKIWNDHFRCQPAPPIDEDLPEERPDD
The data set can be described thus: Human adenosine A1 receptor [3H]-DPCPX binding assay (SPA). Particulars: recombinant receptor in CHO cell membranes; [3H]-DPCPX 0.6 nM; Ki by Cheng-Prussoff; read-out: hA1 (pKi) (converted). The protocol: Human Adenosine A1 receptor
(§1) The human adenosine A1 receptor was recombinantly expressed in Chinese hamster ovary (CHO) cells using the semliki forest virus expression system. Cells were harvested, washed twice by centrifugation, homogenized and again washed by centrifugation. The final washed membrane pellet was suspended in a Tris (50 mM) buffer containing 120 mM NaCl, 5 mM KCl, 2 mM CaCl2 and 10 mM MgCl2 (pH 7.4) (buffer A). The [^3H]-DPCPX (([propyl-^3H]8-cyclopentyl-1,3-dipropyxanthine); 0.6 nM) binding assay was carried out in 96-well plates in the presence of 2.5 μg of membrane protein, 0.5 mg of Ysi-poly-1-lysine SPA beads and 0.1 U adenosine deaminase in a final volume of 200 μl of buffer A. Non-specific binding was defined using xanthine amine congener (XAC; 2 μM). Compounds were tested at 10 concentrations from 10 μM–0.3 nM. All assays were conducted in duplicate and repeated at least two times. Assay plates were incubated for 1 hour at room temperature before centrifugation and then bound ligand determined using a Packard Topcount scintillation counter. IC50 values were calculated using a non-linear curve fitting program and Ki values calculated using the Cheng-Prussoff equation.

The target of data set [2] is T2, human adenosine A2A receptor (Homo sapiens, UniProt P29274).
T2 construct: expressed in transfected cells; host or cells: CHO cells, semliki forest virus expression system; membrane preparation
Description: Human adenosine A2A receptor [3H]-SCH-58261 binding assay (SPA). Particulars: recombinant receptor in CHO cell membranes; [3H]-SCH-58261 1 nM; Ki by Cheng-Prussoff; read-out: hA2 (pKi) (converted). The protocol: Human Adenosine A2A Receptor
as §1, with “A2A” for “A1”, “[^3H]-SCH-58261 (Dionisotti et al., 1997, Br J Pharmacol 121, 353; 1” for “[^3H]-DPCPX (([propyl-^3H]8-cyclopentyl-1,3-dipropyxanthine); 0.6”, “μM-0.3” for “μM–0.3”, “duplic” for “duplicate”, “[…]” for “for 1”

T2 sequence (P29274 whole entry): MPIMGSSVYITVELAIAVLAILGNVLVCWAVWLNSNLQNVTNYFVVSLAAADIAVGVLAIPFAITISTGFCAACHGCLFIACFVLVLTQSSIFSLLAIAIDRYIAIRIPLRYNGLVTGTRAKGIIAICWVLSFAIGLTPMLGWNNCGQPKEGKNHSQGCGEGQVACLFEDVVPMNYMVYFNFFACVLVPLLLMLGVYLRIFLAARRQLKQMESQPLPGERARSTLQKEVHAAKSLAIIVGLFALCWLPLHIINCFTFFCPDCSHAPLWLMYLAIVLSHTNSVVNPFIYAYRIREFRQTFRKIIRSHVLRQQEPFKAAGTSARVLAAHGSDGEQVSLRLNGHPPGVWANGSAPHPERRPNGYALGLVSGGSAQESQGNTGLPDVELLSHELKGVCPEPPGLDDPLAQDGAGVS

As usually defined, the melting point is the temperature, or range, at which the solid turns liquid. Molecule `COc1ccc(N2CCOCC2)c2sc(-c3nc4ccccc4[nH]3)nc12` [Example 2, 2-(1H-Benzoimidazol-2-yl)-4-methoxy-7-morpholin-4-yl-benzothiazole] showed a melting point of 284 to 286 °C. The Ki in data set [1] was 158 nM. The Ki in data set [2] is 0.501 nM.

For the molecule `COc1ccc(N2CCOCC2)c2sc(-c3nc4c([nH]3)CCN(C(=O)c3ccc(F)cc3)CC4)nc12` [Example 26, (4-Fluoro-phenyl)-[2-(4-methoxy-7-morpholin-4-yl-benzothiazol-2-yl)-4,5,7,8-tetrahydro-1H-imidazo[4,5-d]azepin-6-yl]-methanone], the melting point lay in the range of 205 to 207 °C. Moreover, the Ki in data set [1] is 631 nM. Further, in data set [2], the Ki is 1 nM.

The record behind these values is patent US7122545B2, “Imidazo-benzothiazoles” (Hoffmann-La Roche Inc., priority 2003, dated 2006).
